Data as given in ChEMBL document CHEMBL4823254, “Tetrahydroquinoline-Capped Histone Deacetylase 6 Inhibitor SW-101 Ameliorates Pathological Phenotypes in a Charcot-Marie-Tooth Type 2A Mouse Model” (J Med Chem, 2021).

Tests used:
Histone deacetylase 8 = target: T1, Histone deacetylase 8 (Homo sapiens, UniProt Q9BY41)
T1 sequence (Q9BY41 whole entry): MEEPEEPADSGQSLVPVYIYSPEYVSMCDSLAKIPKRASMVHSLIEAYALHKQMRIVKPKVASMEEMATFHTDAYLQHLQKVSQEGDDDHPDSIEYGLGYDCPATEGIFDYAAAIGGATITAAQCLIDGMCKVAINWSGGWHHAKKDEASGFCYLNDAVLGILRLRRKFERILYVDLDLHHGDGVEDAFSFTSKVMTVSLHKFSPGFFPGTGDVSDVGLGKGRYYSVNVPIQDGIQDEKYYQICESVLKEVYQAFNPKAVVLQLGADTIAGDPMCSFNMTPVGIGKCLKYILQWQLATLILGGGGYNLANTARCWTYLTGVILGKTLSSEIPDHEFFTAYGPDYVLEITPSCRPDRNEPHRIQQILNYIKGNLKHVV
Description: Inhibition of recombinant human HDAC8 using Boc-Lys(TFA)-AMC as substrate preincubated for 10 mins followed by substrate addition and measured after 30 mins by fluorescence-based assay

Histone deacetylase 1 [1] = target: T2, Histone deacetylase 1 (Homo sapiens, UniProt Q13547)
Target sequence in this assay (Q13547 whole entry): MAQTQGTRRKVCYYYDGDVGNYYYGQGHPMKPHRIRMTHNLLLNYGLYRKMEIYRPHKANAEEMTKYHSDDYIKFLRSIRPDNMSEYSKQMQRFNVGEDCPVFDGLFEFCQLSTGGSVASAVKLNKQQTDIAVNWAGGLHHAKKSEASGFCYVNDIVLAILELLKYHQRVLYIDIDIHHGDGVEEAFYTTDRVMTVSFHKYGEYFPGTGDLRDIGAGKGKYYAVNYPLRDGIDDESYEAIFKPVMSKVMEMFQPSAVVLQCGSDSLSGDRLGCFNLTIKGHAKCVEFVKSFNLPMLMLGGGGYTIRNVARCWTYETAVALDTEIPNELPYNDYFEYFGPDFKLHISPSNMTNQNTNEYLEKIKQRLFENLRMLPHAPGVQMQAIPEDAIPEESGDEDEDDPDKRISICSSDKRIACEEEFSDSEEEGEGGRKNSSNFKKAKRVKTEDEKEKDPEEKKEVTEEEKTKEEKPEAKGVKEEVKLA
Description: Inhibition of recombinant human HDAC1 using Ac-GAK(Ac)-AMC as substrate preincubated for 10 mins followed by substrate addition and measured after 30 mins by fluorescence-based assay

[2] = target: T3, Protein deacetylase HDAC6 (Homo sapiens, UniProt Q9UBN7)
T3 sequence (Q9UBN7 whole entry): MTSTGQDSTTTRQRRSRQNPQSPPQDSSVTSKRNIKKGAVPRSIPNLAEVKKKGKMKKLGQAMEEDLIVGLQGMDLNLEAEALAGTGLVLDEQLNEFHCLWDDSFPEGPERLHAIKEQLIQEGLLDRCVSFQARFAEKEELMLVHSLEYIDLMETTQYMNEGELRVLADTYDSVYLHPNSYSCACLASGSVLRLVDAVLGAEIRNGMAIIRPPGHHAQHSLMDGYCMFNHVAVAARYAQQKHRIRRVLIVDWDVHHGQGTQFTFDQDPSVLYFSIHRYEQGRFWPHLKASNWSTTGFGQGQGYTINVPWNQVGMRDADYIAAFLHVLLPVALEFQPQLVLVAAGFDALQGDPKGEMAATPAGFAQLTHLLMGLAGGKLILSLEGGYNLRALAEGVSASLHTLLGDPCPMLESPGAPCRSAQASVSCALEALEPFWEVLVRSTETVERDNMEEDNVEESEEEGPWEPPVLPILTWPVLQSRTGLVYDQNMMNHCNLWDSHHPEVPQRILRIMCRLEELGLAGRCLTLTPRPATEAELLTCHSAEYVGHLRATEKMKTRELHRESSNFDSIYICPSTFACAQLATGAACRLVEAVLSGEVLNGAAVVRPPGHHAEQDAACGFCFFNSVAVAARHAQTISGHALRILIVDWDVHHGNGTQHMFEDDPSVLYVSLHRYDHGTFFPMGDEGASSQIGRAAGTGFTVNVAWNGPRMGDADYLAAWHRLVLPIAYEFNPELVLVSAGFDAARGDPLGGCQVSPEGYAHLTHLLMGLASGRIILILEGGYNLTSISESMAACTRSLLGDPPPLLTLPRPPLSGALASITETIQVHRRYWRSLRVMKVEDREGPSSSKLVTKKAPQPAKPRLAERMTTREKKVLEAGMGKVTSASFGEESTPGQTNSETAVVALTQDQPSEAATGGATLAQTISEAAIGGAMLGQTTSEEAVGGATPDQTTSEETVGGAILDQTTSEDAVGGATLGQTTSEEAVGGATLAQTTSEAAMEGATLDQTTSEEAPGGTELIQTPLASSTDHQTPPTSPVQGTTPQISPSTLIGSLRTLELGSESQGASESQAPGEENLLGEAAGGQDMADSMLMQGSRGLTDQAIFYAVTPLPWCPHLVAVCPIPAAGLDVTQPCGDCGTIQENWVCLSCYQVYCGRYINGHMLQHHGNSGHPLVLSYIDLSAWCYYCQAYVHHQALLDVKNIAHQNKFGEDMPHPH
Description: Inhibition of recombinant human HDAC6 using Ac-GAK(Ac)-AMC as substrate preincubated for 10 mins followed by substrate addition and measured after 30 mins by fluorescence-based assay

[3] = target: Protein deacetylase HDAC6, Homo sapiens (UniProt Q9UBN7); assay: biochemical
Histone deacetylase 1 [4] = target: T2, Histone deacetylase 1; assay: biochemical
Target sequence in this assay (Q13547 whole entry, looked up): as the sequence (Q13547 whole entry) above

[5] = Stability in CD1 mouse pooled liver microsomes assessed as parent compound remaining measured at 60 mins in presence of NADPH by LC-MS/MS analysis; format: ADME, Microsome; settings: for remaining at 1 h: CD1, mouse, pooled liver microsomes, read-out: Stabilty
[6] = Half life in CD1 mouse pooled liver microsomes assessed as parent compound remaining measured up to 60 mins in presence of NADPH by LC-MS/MS analysis; format: ADME, Microsome; settings: for half-life: CD1, mouse, pooled liver microsomes
[7] = Stability in human pooled liver microsomes assessed as parent compound remaining measured at 60 mins in presence of NADPH by LC-MS/MS analysis; format: ADME, Microsome; settings: pooled liver microsomes, read-out: Stabilty
[8] = target: T4, Protein deacetylase HDAC6 (Mus musculus) (UniProt Q9Z2V5); assay: Inhibition of HDAC6 in mouse Neuro2a cells assessed as fold increase in ratio of acetylated alpha-tubulin to alpha tubulin at 1 uM incubated for overnight by Western blot analysis; format: cell-based; settings: time 12.0 hrs
T4 sequence (whole entry): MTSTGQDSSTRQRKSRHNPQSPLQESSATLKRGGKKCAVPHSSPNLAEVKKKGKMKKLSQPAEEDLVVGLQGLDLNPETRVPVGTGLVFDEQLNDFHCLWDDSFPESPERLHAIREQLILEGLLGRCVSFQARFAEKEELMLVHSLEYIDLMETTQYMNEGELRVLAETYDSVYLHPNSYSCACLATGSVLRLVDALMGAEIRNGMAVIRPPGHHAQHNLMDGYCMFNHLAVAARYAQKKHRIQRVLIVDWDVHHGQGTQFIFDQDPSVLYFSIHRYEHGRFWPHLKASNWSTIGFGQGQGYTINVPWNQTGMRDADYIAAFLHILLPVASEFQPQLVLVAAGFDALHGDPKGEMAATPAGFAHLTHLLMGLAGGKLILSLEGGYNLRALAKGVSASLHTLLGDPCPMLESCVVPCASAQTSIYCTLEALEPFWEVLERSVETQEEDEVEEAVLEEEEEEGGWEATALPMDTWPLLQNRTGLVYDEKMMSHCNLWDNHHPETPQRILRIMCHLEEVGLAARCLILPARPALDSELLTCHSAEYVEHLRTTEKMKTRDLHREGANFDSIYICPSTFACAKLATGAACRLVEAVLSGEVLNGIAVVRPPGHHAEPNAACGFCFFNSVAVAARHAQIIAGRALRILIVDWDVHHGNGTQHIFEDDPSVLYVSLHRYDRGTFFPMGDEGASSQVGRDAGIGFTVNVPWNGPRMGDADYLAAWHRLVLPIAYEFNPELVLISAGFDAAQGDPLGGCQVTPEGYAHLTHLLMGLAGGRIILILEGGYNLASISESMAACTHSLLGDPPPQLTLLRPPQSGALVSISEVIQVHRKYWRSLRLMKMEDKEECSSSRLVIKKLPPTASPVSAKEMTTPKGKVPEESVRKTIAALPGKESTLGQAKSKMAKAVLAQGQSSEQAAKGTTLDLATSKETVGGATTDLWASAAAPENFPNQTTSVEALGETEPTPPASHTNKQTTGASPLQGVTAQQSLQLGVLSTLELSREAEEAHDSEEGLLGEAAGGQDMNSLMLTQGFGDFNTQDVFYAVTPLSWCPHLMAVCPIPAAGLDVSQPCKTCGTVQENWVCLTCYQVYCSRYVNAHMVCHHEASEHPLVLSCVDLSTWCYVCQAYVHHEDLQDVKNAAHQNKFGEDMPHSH

[9] = Half life in human pooled liver microsomes assessed as parent compound remaining measured up to 60 mins in presence of NADPH by LC-MS/MS analysis; format: ADME, Microsome; settings: pooled liver microsomes
[10] = target: T4, Protein deacetylase HDAC6 (Mus musculus); assay: Inhibition of HDAC6 in mouse Neuro2a cells assessed as fold increase in ratio of acetylated alpha-tubulin to alpha tubulin at 0.01 uM incubated for overnight by Western blot analysis; format: cell-based; settings: time 12.0 hrs

SMILES | IC50 (Histone deacetylase 8) [nM] | IC50 (Histone deacetylase 1 [1]) [nM] | IC50 [2] [nM] | IC50 [3] [nM] | IC50 (Histone deacetylase 1 [4]) [nM] | Ratio IC50 (Homo sapiens) | remaining at 1 h [5] [%] | half-life [6] [h] | remaining at 1 h [7] [%] | fold change (FC) [8] | half-life [9] [h] | fold change (FC) [10] | Stabilty ([5]; mouse, microsomes, 1 h) [%] | t1/2 ([6]; mouse, microsomes, 1 h) [h]
O=C(NO)c1ccc(CN2CCCCc3cc(Br)ccc32)cc1 | 4360 | 1590 | 9 | – | – | – | – | – | – | – | – | – | – | –
CC1(C)CCN(Cc2ccc(C(=O)NO)cc2)c2ccc(F)cc21 | – | – | – | 45.1 | 21100 | 468 | – | – | – | – | – | – | – | –
O=C(NO)c1ccc(CN2C(=O)CCc3cc(C4CC4)ccc32)cc1 | 1500 | 117 | 2.7 | – | – | – | – | – | – | – | – | – | – | –
CC1(C)CCc2cc(Cl)ccc2N1Cc1ccc(C(=O)NO)cc1 | – | – | – | 328 | 19600 | 60 | 20.3 | 0.423 | – | – | – | – | – | –
O=C(NO)c1ccc(CN2CCCCc3ccccc32)cc1 | 5610 | 1320 | 5 | – | – | – | 34.7 | 0.66 | 83.9 | 0.78 | 4.03 | 0.98 | – | –
O=C(NO)c1ccc(CN2CCCc3cc(Cl)c(F)cc32)cc1 | – | – | – | 4.8 | 3220 | 670 | 19.1 | 0.428 | – | 1.5 | – | 1.16 | – | –
CC1(C)CCc2cc(F)ccc2N1Cc1ccc(C(=O)NO)cc1 | – | – | – | 161 | 14100 | 88 | – | – | – | – | – | – | – | –
O=C(NO)c1ccc(CN2CCCc3cc(F)c(Cl)cc32)cc1 | – | – | – | 3.4 | 1870 | 550 | – | – | – | 1.53 | – | 1.14 | – | –
CN1CCc2c(c3ccccc3n2Cc2ccc(C(=O)NO)cc2)C1 | – | – | – | – | – | – | – | – | – | 1.11 | – | 0.91 | – | –
N#Cc1ccc2c(c1)CCCCN2Cc1ccc(C(=O)NO)cc1 | 2220 | 248 | 4.6 | – | – | – | 80.8 | 3.26 | 84.9 | 0.98 | 4.21 | – | – | –
CC(c1ccc(C(=O)NO)cc1)N1CCCc2cc(Cl)ccc21 (stereo unspecified) | – | – | – | 383 | 8430 | 22 | – | – | – | – | – | – | – | –
O=C(NO)c1ccc(CN2CCCc3cc(-c4cc[nH]n4)ccc32)cc1 | 792 | 184 | 0.3 | – | – | – | – | – | – | 2.14 | – | 2.65 | – | –
O=C(NO)c1ccc(CN2C(=O)CCc3cc(Cl)ccc32)cc1 | 2080 | 276 | 2.9 | – | – | – | – | – | 92.6 | 1.51 | 9.62 | 0.93 | 77.7 | 29.05
CCCc1ccc2c(c1)CCC(=O)N2Cc1ccc(C(=O)NO)cc1 | 2680 | 306 | 12 | – | – | – | – | – | – | – | – | – | – | –
NC(=O)c1ccc2c(c1)CCCCN2Cc1ccc(C(=O)NO)cc1 | 1060 | 150 | 2.4 | – | – | – | – | – | – | 1.19 | – | 2.4 | – | –
O=C(NO)c1ccc(C(=O)N2CCCc3cc(Cl)ccc32)cc1 | – | – | – | 961 | 10500 | 11 | – | – | – | – | – | – | – | –
N#Cc1ccc2c(c1)CCCN2Cc1ccc(C(=O)NO)cc1 | 1490 | 141 | 1.3 | – | – | – | – | – | – | – | – | – | – | –
O=C(NO)c1ccc(CN2CCCCc3cc(-c4cc[nH]n4)ccc32)cc1 | 2820 | 1080 | 17 | – | – | – | 10.1 | 0.305 | 15 | 1.78 | 0.37 | 0.95 | – | –
O=C(NO)c1ccc(CN2CCCc3cc(Cl)ccc32)c(F)c1 | – | – | – | 12.4 | 21200 | 1710 | 17.2 | 0.413 | – | 1.38 | – | 1.21 | – | –
O=C(NO)c1ccc(CN2C(=O)CCc3cc(Br)ccc32)cc1 | 743 | 107 | 0.9 | – | – | – | – | – | – | – | – | – | – | –
CC1(C)CCN(Cc2ccc(C(=O)NO)cc2)c2ccc(Cl)cc21 | – | – | – | 37.8 | 19600 | 519 | 6.8 | 0.265 | – | – | – | – | – | –
O=C(NO)c1ccc(CN2CCCCc3cc(Cl)ccc32)cc1 | 8640 | 1900 | 1 | – | – | – | 34.7 | 1.01 | 83.9 | 0.55 | 35.5 | 0.89 | – | –
O=C(NO)c1ccc(CN2C(=O)CCCc3cc(Cl)ccc32)cc1 | 1170 | 126 | 0.8 | – | – | – | 68.1 | 1.83 | 95.3 | 1.73 | 12 | 2.81 | – | –
O=C(NO)c1ccc(CN2CCCc3cc(Cl)c(Cl)cc32)cc1 | – | – | – | 3.6 | 2620 | 728 | – | – | – | 1.54 | – | 1.38 | – | –
